# Test results as given in US20200079766A1, “MONOCYCLIC OGA INHIBITOR COMPOUNDS” (Janssen Pharmaceutica NV, priority 2016, published 2020).
# Structures can show the parent of a compound that is named as a salt.
# Key:
# [1] = system: OGA in HEK293 cells inducible for P301L mutant human Tau (isoform 2N4R); test: OGA cellular assay: immunocytochemical detection of O-GlcNAcylated proteins (CTD110.6 antibody) after 6 h incubation; assay type: cell-based; settings: for Emax / EC50: Homo sapiens, HEK293, 6 h; for EC50: read-out: Cellular hOGA, pEC50 (converted)
# Summary of the method: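 Low-glucose medium, 6 h compound exposure at 0.2% DMSO; cells PFA-fixed and O-GlcNAc ICC signal imaged at 488 nm (9 fields/well), Hoechst nuclei counted for toxicity. Thiamet G 200 uM on each plate as maximum; IC50 from non-linear regression.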
# [2] = biological target: T1, recombinant human Meningioma Expressed Antigen 5 (MGEA5), also referred to as O-GlcNAcase (OGA) (Homo sapiens, UniProt O60502); test: OGA biochemical assay: inhibition of FM-GlcNAc hydrolysis, fluorescence; protocol A (10 nM OGA, 1 h) or protocol B (2 nM OGA, 6 h); settings: Enzymatic protocol B (2 nM OGA, 6 h); for IC50: read-out: Enzymatic hOGA, pIC50 (converted)
# T1 construct: Full length OGA enzyme was purchased at OriGene (cat # TP322411); purchased OriGene TP322411
# T1 sequence (O60502 1-916): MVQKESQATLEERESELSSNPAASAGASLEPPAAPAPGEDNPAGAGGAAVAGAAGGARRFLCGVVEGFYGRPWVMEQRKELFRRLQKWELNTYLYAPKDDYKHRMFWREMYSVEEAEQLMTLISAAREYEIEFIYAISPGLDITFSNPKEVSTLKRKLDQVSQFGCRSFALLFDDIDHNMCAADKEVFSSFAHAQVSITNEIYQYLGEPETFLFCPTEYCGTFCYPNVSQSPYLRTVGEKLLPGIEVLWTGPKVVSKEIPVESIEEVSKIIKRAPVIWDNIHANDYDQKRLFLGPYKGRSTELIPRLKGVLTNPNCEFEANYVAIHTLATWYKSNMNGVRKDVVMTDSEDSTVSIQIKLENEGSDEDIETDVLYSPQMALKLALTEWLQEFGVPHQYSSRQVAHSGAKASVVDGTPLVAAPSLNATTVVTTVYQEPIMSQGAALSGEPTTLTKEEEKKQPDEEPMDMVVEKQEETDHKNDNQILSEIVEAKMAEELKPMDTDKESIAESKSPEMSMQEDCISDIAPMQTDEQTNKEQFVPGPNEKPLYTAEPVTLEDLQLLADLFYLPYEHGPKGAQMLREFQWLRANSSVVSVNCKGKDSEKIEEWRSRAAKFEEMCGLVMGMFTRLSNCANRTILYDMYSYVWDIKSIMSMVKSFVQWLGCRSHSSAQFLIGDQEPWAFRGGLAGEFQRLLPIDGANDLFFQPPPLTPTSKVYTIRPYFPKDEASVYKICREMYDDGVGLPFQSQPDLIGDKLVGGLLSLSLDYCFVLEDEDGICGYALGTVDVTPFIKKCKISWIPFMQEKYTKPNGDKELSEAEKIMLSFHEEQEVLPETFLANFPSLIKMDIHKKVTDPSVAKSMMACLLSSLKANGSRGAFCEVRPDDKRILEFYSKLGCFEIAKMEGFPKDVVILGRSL
# Summary of the method: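 Full-length human OGA in 200 mM citrate/phosphate pH 7.2 with 0.005% Tween-20, compound pre-incubated 60 min at RT, then 100 uM FM-GlcNAc (final); 10 nM enzyme for 1 h or 2 nM for 6 h at RT. Stopped with pH 11.0 carbonate; fluorescein read at ex 485/em 538 nm. IC50 and Hill coefficient from curve fit.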
Structure (SMILES),melting point,Emax [2],IC50 [2],Enzymatic Emax (%) [2],Enzymatic hOGA; pIC50 [2],Emax ([1]; maximum = Thiamet G 200 uM),EC50 [1],Cellular hOGA; pEC50 [1],Cellular Emax (%) ([1]; maximum = Thiamet G 200 uM)
Cc1cc(CC2CCCN(C(C)c3ccc4c(c3)OCCO4)C2)cc(C)n1 (racemic) (as salt: HCl) [compound 142],256.05 °C,–,–,–,–,–,–,–,–
CC(=O)Nc1ncc(CN2CCC(OCc3cc(C)nc(C)c3)C2)s1 (racemic) [Product 81],118.26 °C,–,–,–,–,–,–,–,–
CC(=O)Nc1ncc(CN2CCC(COc3cc(C)nc(C)c3)C2)s1 (racemic) [Product 89],125.9 °C,–,–,–,–,–,–,–,–
"Cc1cc(CC2CCCN(C(C)c3ccc4sc(C)nc4c3)C2)cc(C)n1 (single isomer, unassigned) (as salt: HCl) [compound 118]",270.1 °C,–,–,–,–,–,–,–,–
CC(=O)Nc1ncc(CN2CCC(Cc3cc(F)ncc3C)C2)s1 (stereo not shown) [Product 106],140.36 °C,–,–,–,–,–,–,–,–
CC(=O)Nc1ncc(CN2CCC(Cc3ncccc3F)C2)s1 (stereo not shown) [compound 39],150.08 °C,99.2%,60.3 nM,–,–,–,–,–,–
CC(=O)Nc1ncc(CN2CCC(Cc3nccc(C)c3F)C2)s1 (stereo not shown) [compound 43],129.25 °C,102%,9.12 nM,–,–,87%,79.4 nM,–,–
CC(=O)Nc1ncc(CN2CC[C@H](Cc3cnc(C(=O)NC(C)(C)C)cn3)C2)s1 [compound 92],–,99.7%,22.4 nM,–,–,92.6%,81.3 nM,–,–
COc1nc(C)ccc1CC1CCN(Cc2cnc(NC(C)=O)s2)C1 (stereo not shown) [compound 109],–,103%,18.6 nM,–,–,115%,52.5 nM,–,–
Cc1cc([C@H]2CCCN([C@@H](C)c3ccc4sc(C)nc4c3)C2)cc(C)n1 [compound 117],–,102%,12 nM,–,–,99.5%,97.7 nM,–,–
CC(=O)Nc1ncc(CN2CCCC(COc3cc(C)nc(C)c3)C2)o1 (stereo not shown) [compound 138],–,102%,53.7 nM,–,–,74.2%,437 nM,–,–
COc1cc(C[C@H]2CCN(Cc3cnc(NC(C)=O)s3)C2)cc(C(F)(F)F)n1 [compound 143],–,102%,21.4 nM,–,–,86.2%,60.3 nM,–,–
Cc1cc(C2CCCN(C(C)c3ccc4nccnc4c3)C2)cc(C(F)(F)F)n1 (stereo not shown) [compound 144],–,101%,41.7 nM,–,–,42.8%,> 1000 nM,–,–
Cc1cc(C[C@H]2CCCN(Cc3ccc4sc(C)nc4c3)C2)cc(C)n1 [compound 145],–,101%,126 nM,–,–,39.4%,> 1000 nM,–,–
Cc1cc(C[C@H]2CCCN(Cc3ccc4scnc4c3)C2)cc(C)n1 [compound 147],–,99%,282 nM,–,–,33.2%,> 1000 nM,–,–
Cc1cc(C[C@H]2CCCN(Cc3ccc4c(c3)OCCO4)C2)cc(C)n1 [compound 152],–,102%,102 nM,–,–,41.9%,> 1000 nM,–,–

# Further lines, with some results ahead:
melting point,Emax [2],IC50 [2],Enzymatic Emax (%) [2],Enzymatic hOGA; pIC50 [2],Structure (SMILES),Emax ([1]; maximum = Thiamet G 200 uM),EC50 [1],Cellular hOGA; pEC50 [1],Cellular Emax (%) ([1]; maximum = Thiamet G 200 uM)
147.16 °C,–,–,–,–,CC(=O)Nc1ncc(CN2CCC(Cc3cncnc3C)C2)s1 (racemic) [Product 103],–,–,–,–
107.53 °C,99.7%,19.5 nM,–,–,CC(=O)Nc1ncc(CN2CCC(Cc3ccc(C)c(C)n3)C2)s1 (stereo not shown) [compound 38],90.3%,39.8 nM,–,–
–,–,–,102%,8.21,CC(=O)Nc1ncc(CN2CCC(Cc3cnc(C#N)cn3)C2)s1 (stereo not shown) [compound 91],–,–,7.28,102.1%
–,103%,46.8 nM,–,–,CC(=O)Nc1ncc(CN2CCC(Cc3cncnc3C)C2)s1 (stereo not shown) [compound 103],86.9%,132 nM,–,–
–,102%,20 nM,–,–,CC(=O)Nc1ncc(CN2CCC(Cc3ncc(F)cc3C)C2)s1 (stereo not shown) [compound 104],89.4%,58.9 nM,–,–
–,102%,19.5 nM,–,–,CC(=O)Nc1ncc(CN2CCC(Cc3cnc(C(N)=O)cn3)C2)s1 (stereo not shown) [compound 105],93.3%,100 nM,–,–
–,101%,21.4 nM,–,–,CC(=O)Nc1ncc(CN2CCC(Cc3cc(F)ncc3C)C2)s1 (stereo not shown) [compound 106],86.9%,41.7 nM,–,–
173.68 °C,102%,40.7 nM,–,–,CC(=O)Nc1ncc(CN2CCC(Cc3ccc(F)c(C)n3)C2)s1 (stereo not shown) [compound 107],82%,138 nM,–,–
118.3 °C,103%,33.1 nM,–,–,CC(=O)Nc1ncc(CN2CCC(Cc3cncc(C)n3)C2)s1 (stereo not shown) [compound 108],78.9%,155 nM,–,–
–,103%,20 nM,–,–,CC(=O)Nc1ncc(CN2CC[C@H](Cc3cc(C)nc(F)c3)C2)s1 [compound 110],91.3%,24.5 nM,–,–
–,103%,30.9 nM,–,–,CC(=O)Nc1ncc(CN2CC[C@@H](Cc3cc(C)nc(F)c3)C2)s1 [compound 111],97.4%,52.5 nM,–,–
–,102%,4.57 nM,–,–,CC(=O)Nc1ncc(CN2CC[C@H](Cc3cc(C)nc(C)c3)C2)s1 [compound 112],118%,17.8 nM,–,–
–,102%,4.47 nM,–,–,CC(=O)Nc1ncc(CN2CC[C@@H](Cc3cc(C)nc(C)c3)C2)s1 [compound 113],105%,11.2 nM,–,–
–,98.3%,4.27 nM,–,–,CC(=O)Nc1ncc(CN2CCC[C@H](Cc3ncc(F)cc3F)C2)s1 [compound 121],110%,28.8 nM,–,–
–,100%,2.51 nM,–,–,CC(=O)Nc1ncc(CN2CCC[C@H](Cc3cc(F)ncc3C)C2)s1 [compound 122],97.2%,4.17 nM,–,–
–,99.2%,2.75 nM,–,–,CC(=O)Nc1ncc(CN2CCC[C@H](Cc3cc(C)nc(F)c3)C2)s1 [compound 123],90.5%,9.77 nM,–,–
–,100%,1.38 nM,–,–,COc1nc(C)ccc1C[C@H]1CCCN(Cc2cnc(NC(C)=O)s2)C1 [compound 126],97.5%,11.5 nM,–,–
–,102%,2.88 nM,–,–,CC(=O)Nc1ncc(CN2CCC[C@H](Cc3cncc(C)n3)C2)s1 [compound 127],88.5%,27.5 nM,–,–
–,102%,1.82 nM,–,–,CC(=O)Nc1ncc(CN2CCC[C@H](Cc3nc(C)cnc3C)C2)s1 [compound 128],93.2%,39.8 nM,–,–
–,102%,2.82 nM,–,–,CC(=O)Nc1ncc(CN2CCC[C@H](Cc3ccc(F)c(C)n3)C2)s1 [compound 129],101%,20 nM,–,–
–,103%,15.1 nM,–,–,CC(=O)Nc1ncc(CN2CCC[C@@H](COc3cc(C)nc(C)c3)C2)s1 [compound 154],116%,38 nM,–,–
